In article PMC10396955, “2-Oxabicyclo[2.1.1]hexanes as saturated bioisosteres of the ortho-substituted phenyl ring” (Nature Chemistry, 2023):
Converted amounts (≈) assume the structure as drawn. Read-outs that look alike come from different tables or passages of the source.

Experiments:
[1] = Kinetic solubility in phosphate-buffered saline, pH 7.4; format: physicochemical; settings: for solubility at 2 h: 25 °C, pH 7.4, aqueous buffer, kinetic from dmso stock
Protocol: Analysis of Aqueous Solubility […]
compound (Ondansetron) were assessed for kinetic solubility in phosphate-buffered saline, pH […]
Phosphate buffered saline, pH 7.4 (Sigma-Aldrich, USA; Cat #P3813) […]
MultiScreen HTS 96 Well Filter Plates (Millipore, Ireland; Cat # MSGVS2210) […]
Matrix Multichannel Electronic Pipette 2-125 µL, 5-250 µL, 15-1250 µL (Thermo Scientific, […]
Vacuum pump (Millipore, USA; Model # XX5500000)
The measurements were performed using SpectraMax Plus reader in UV-Vis mode. Acquisition and analysis of the data were performed using SoftMax Pro v.5.4 (Molecular Devices) and Excel […]
Kinetic solubility assay was performed according to the Enamine’s aqueous solubility SOP.
Briefly, using a 20 mM stock solution of the compound in 100% DMSO dilutions were prepared to a theoretical concentration of 400 μM in duplicates in phosphate-buffered saline pH 7.4 […]
for two hours and then filtered through HTS filter plates using a vacuum manifold. The filtrates of test compounds were diluted 2-fold with acetonitrile with 2% DMSO before measuring.
In parallel, compound dilutions in acetonitrile/PBS (1:1) were prepared to theoretical […]
DMSO to generate calibration curves. Ondansetron was used as reference compound to control proper assay performance. 200 μl of each sample was transferred to 96-well plate and measured in 200-550 nm range with 5 nm step.
The concentrations of compounds in PBS filtrate are calculated using a dedicated Microsoft Excel calculation script. Proper absorbance wavelengths for calculations are selected for each compound manually based on absorbance maximums (absolute absorbance unit values for the minimum and maximum concentration points within 0 – 3 OD range). Each of the final datasets is additionally visually evaluated by the operator and goodness of fit (R2) is calculated for each calibration curve. The effective range of this assay is approximately 2-400 μM and the […]

human liver microsomes = assay: Metabolic stability in human liver microsomes; format: in vitro ADME
Protocol: (§1) The data acquisition and system control was performed using Analyst 1.6.3 software from AB Sciex. Methods Microsomal incubations were carried out in 96-well plates in 5 aliquots of 30 μL each (one for each time point). […] In the control reactions the NADPH-cofactor system was substituted with phosphate buffer. […] Each reaction was performed in duplicates. Five time points over 40 minutes were analyzed. The reactions were stopped by adding 4 volumes of methanol containing internal standard to incubation aliquots, followed by protein sedimentation by centrifuging at 5500 rpm for 4 minutes. […]. Supernatants were analyzed using the HPLC system coupled with tandem mass spectrometer. […] In some cases, the last time point is excluded from the calculations to ensure acceptable logarithmic linearity of decay.

[2] = Metabolic stability in human liver microsomes; format: in vitro ADME; settings: both sexes
Protocol: as §1

Fusarium oxysporum = assay: Antifungal susceptibility testing (MIC, CLSI M38-A2 microdilution); format: cell-based
Protocol: (§2) page 252: Antifungal susceptibility testing (determination of MIC values) The antifungal susceptibility tests were performed according to the Clinical and Laboratory Standards Institute (CLSI) […]-A2 protocol for mycelial fungi (1). Stock solutions were prepared by dissolving an appropriate amount of testing compounds in DMSO. Solutions of test compounds were added to the wells of a 96-well polystyrene microtiter plate (Colstar, USA) in the concentration range from 0.5 to 0.001 mg/mL. Mycelium growth was monitored photometrically at 490 nm by measuring the optical density of each well. Measurements were carried out two times: immediately after adding all components (RPMI 1640 broth, conidial suspension, test compound solutions) and after incubation plate at 26 °C for 48 h (2). MICs were the lowest testing compound concentrations that produced partial growth inhibition (50% of optical density relative to the control without testing compounds). The tests were performed in triplicate Results : Table S6. The MIC values of Fluxapyroxad , Boscalid , and their saturated analogues against Fusarium oxysporum , and Fusarium verticillioides Antifungal compaunds MIC, mg/mL Fusarium oxysporum Fusarium verticillioides Fluxapyroxad -* 0.250 Analogue (±)- 28 0.125 0.125 […] of 0.063 mg/mL. […]

Fusarium verticillioides = assay: as above; format: cell-based
Protocol: as §2

[3] = PBS solubility, pH 7.4, Incubation 1
[4] = PBS solubility, pH 7.4, Incubation 2
[5] = human, microsomes, pH 7.4, % Remaining without cofactor, Mean of 2
[6] = human, microsomes, pH 7.4, % Remaining, Mean of 2
[7] = human, microsomes, pH 7.4, Clint
[8] = human, microsomes, pH 7.4, t1/2
[9] = Table S6, lowest concentration giving 50% of optical density relative to control, 26 °C, 48 h
[10] = phosphate-buffered saline, Table S1, incubation 1, read-out: PBS solubility, pH 7.4, Incubation 1
[11] = phosphate-buffered saline, Table S1, incubation 2, read-out: PBS solubility, pH 7.4, Incubation 2
[12] = phosphate-buffered saline, experimental kinetic solubility in phosphate-buffered saline at pH 7.4, Fig. 3, read-out: Solubility
[13] = human, liver microsomes, pH 7.4, human liver microsomes, 2 μM, 37 °C, with NADPH, 7 min
[14] = human, liver microsomes, pH 7.4, human liver microsomes, 2 μM, 37 °C, with NADPH, 15 min
[15] = human, liver microsomes, pH 7.4, human liver microsomes, 2 μM, 37 °C, with NADPH, 25 min, read-out: % Remaining, Mean of 2
[16] = human, liver microsomes, pH 7.4, human liver microsomes, 2 μM, 37 °C, with NADPH, 40 min, read-out: % Remaining, Mean of 2
[17] = human, liver microsomes, pH 7.4, human liver microsomes, 0.42 mg protein per ml, Table S3, * approximate due to high stability, read-out: Clint
[18] = human, liver microsomes, pH 7.4, human liver microsomes, * approximate due to high stability, read-out: t1/2
[19] = pH 7.4, human liver microsomes, no NADPH cofactor, 40 min, ** instability partially or completely not determined by CYP450 activity, read-out: % Remaining without cofactor, Mean of 2
[20] = pH 7.4, human liver microsomes, elimination constant, * approximate due to high stability, read-out: kel (converted)
[21] = Fusarium verticillioides, 48 h, Table S6, lowest concentration giving 50% of optical density relative to control, 26 °C, 48 h, read-out: MIC
[22] = Fusarium verticillioides, Fig. 4e, read-out: MIC

| Structure (SMILES) | solubility at 2 h [1, 3] [µM] | solubility at 2 h [1, 4] [µM] | solubility at 2 h ([1]; Solubility) [µM] | CIint, intrinsic clearance (human liver microsomes; human, microsomes) [µL/min/mg] | MIC (Fusarium oxysporum; Fig. 4e) [µg/mL] | MIC (Fusarium oxysporum; [9]) [µg/mL] | solubility at 2 h [1, 10] [µM] | solubility at 2 h [1, 11] [µM] | solubility at 2 h [1, 12] [µM] | CIint, intrinsic clearance (human liver microsomes; human liver microsomes) [µL/min/mg] | remaining at […], 2 µM [2, 13] [%] | remaining at […], 2 µM [2, 14] [%] | remaining at 25 min, 2 µM [2, 15] [%] | remaining at 40 min, 2 µM [2, 16] [%] | microsomal CLint at 2 µM [2, 17] [µL/min/mg] | half-life at 2 µM [2, 18] [h] | remaining at 40 min, 2 µM [2, 19] [%] | k el at 2 µM [2, 20] [s⁻¹] | MIC (Fusarium verticillioides; [21]) [µg/mL] | MIC (Fusarium verticillioides; [22]) [µg/mL] | further results |
| --- | --- | --- | --- | --- | --- | --- | --- | --- | --- | --- | --- | --- | --- | --- | --- | --- | --- | --- | --- | --- | --- |
| O=C(Nc1ccccc1-c1ccc(Cl)cc1)c1cccnc1Cl [Boscalid, reference compound] | 9 (≈ 3.09 µg/mL) | 13 (≈ 4.46 µg/mL) | 11 (≈ 3.78 µg/mL) | 26 | 250 (≈ 728 µM) | 250 (≈ 728 µM) |  |  |  |  |  |  |  |  |  |  |  |  |  |  | remaining at 40 min, 2 µM [2, 5]: 59%; remaining at 25 min, 2 µM [2, 6]: 75%; remaining at 40 min, 2 µM [2, 6]: 66%; microsomal CLint at 2 µM [2, 7]: 26 µL/min/mg; half-life at 2 µM [2, 8]: 1.06 h; k el at 2 µM ([2]; human, pH 7.4): 0.000183 s⁻¹; inhibition at 63 µg/mL (Fusarium verticillioides; Fusarium verticillioides, at a concentration of 0.063 mg/mL, MIC not reached, read-out: Maximal inhibition of growth): 39.2 ± 2.7% |
| Cn1cc(C(=O)N[C@@H]2[C@H]3C[C@]2(c2cc(F)c(F)c(F)c2)CO3)c(C(F)F)n1 (relative stereo) [Compound 29] |  |  |  |  |  |  | 151 (≈ 58.5 µg/mL) | 158 (≈ 61.2 µg/mL) | 155 (≈ 60 µg/mL) | 23 | 106 | 93 | 83 | 72 | 23 | 1.22 | 89 | 0.00015 | 250 (≈ 645 µM) | 250 (≈ 645 µM) | inhibition at 125 µg/mL (Fusarium oxysporum; at a concentration of 0.125 mg/mL, MIC not reached, read-out: Maximal inhibition of growth): 35.7 ± 2.4% |
| Cn1cc(C(=O)N[C@@H]2[C@@H]3CC[C@@]2(c2cc(F)c(F)c(F)c2)C3)c(C(F)F)n1 (relative stereo) [Compound 28] |  |  |  |  | 125 (≈ 324 µM) | 125 (≈ 324 µM) | 35 (≈ 13.5 µg/mL) | 33 (≈ 12.7 µg/mL) | 34 (≈ 13.1 µg/mL) | 35 | 78 | 72 | 57 | 55 | 35 | 0.79 | 99 | 0.00025 | 125 (≈ 324 µM) | 125 (≈ 324 µM) |  |
| O=C(N[C@@H]1[C@@H]2CC[C@@]1(c1ccc(Cl)cc1)C2)c1cccnc1Cl (relative stereo) [Compound 30] |  |  |  |  | 31 (≈ 89.3 µM) | 31 (≈ 89.3 µM) | 17 (≈ 5.9 µg/mL) | 18 (≈ 6.25 µg/mL) | 17 ± 0.3 (≈ 5.9 µg/mL) | 12 | 94 | 95 | 90 | 80 | 12 | 2.31 | 71 | 8.33e-05 | 31 (≈ 89.3 µM) |  | increase of solubility relative to boscalid ([1]; kinetic solubility, PBS pH 7.4): ~ 50%; solubility at 2 h ([1]; phosphate-buffered saline, Table S1, mean of 2 incubations, 2 h, 2% DMSO, effective range approx. 2-400 μM, read-out: PBS solubility, pH 7.4, Mean): 17 µM (≈ 5.9 µg/mL); MIC (Fusarium verticillioides; Fig. 4e): 0.031 mg ml^–1 |
| Cn1cc(C(=O)Nc2ccccc2-c2cc(F)c(F)c(F)c2)c(C(F)F)n1 [Fluxapyroxad, reference compound] | 24 (≈ 9.15 µg/mL) | 27 (≈ 10.3 µg/mL) | 25 (≈ 9.53 µg/mL) | 28 |  |  |  |  |  |  |  |  |  |  |  |  |  |  | 250 (≈ 656 µM) | 250 (≈ 656 µM) | remaining at 40 min, 2 µM [2, 5]: 79%; remaining at 25 min, 2 µM [2, 6]: 73%; remaining at 40 min, 2 µM [2, 6]: 63%; microsomal CLint at 2 µM [2, 7]: 28 µL/min/mg; half-life at 2 µM [2, 8]: 0.983 h; k el at 2 µM ([2]; human, pH 7.4): 0.0002 s⁻¹; inhibition at 31 µg/mL (Fusarium oxysporum; at a concentration of 0.031 mg/mL, MIC not reached, read-out: Maximal inhibition of growth): 38 ± 1.9% |
| O=C(N[C@@H]1[C@H]2C[C@]1(c1ccc(Cl)cc1)CO2)c1cccnc1Cl (relative stereo) [Compound 31] |  |  |  |  | 250 (≈ 716 µM) | 250 (≈ 716 µM) | 148 (≈ 51.7 µg/mL) | 157 (≈ 54.8 µg/mL) | 152 (≈ 53.1 µg/mL) | 3 | 107 | 110 | 107 | 108 | ~3 | ~8.09 | 85 |  |  |  | melting point: 147 to 148 °C; microsomal CLint at 2 µM ([2]; human, liver microsomes, pH 7.4, human liver microsomes, Fig. 3, read-out: CIint, intrinsic clearance): 3 µL/min/mg; inhibition at 250 µg/mL (Fusarium verticillioides; Fusarium verticillioides, read-out: Maximal inhibition of growth): 36.3 ± 1.9% |
